The target of the assay is Caspase recruitment domain-containing protein 9 (Homo sapiens) + E3 ubiquitin-protein ligase TRIM62 (Homo sapiens) (UniProt Q9H257+Q9BVG3). Description: CARD9/TRIM62 protein interaction inhibitors – cell lysate, HEK293FT lysates, Luminex bead readout, dose response (AID 1259338). For activity change, negative = inhibition: reference of the scale not given here. The note with it: Luminex bead PPI, MFI.

Calls of active or inactive are those of the source.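 Rule for the calls: active = compounds lowering the signal with a fitted AC50 at or below a set concentration limit; inconclusive = flat curve with 30 to 70% inhibition, or a poor fit; inactive = the rest.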 Some results are limits rather than exact numbers.

Caspase recruitment domain-containing protein 9 (Homo sapiens) + E3 ubiquitin-protein ligase TRIM62 (Homo sapiens), sequence (Q9BVG3 whole entry, looked up, the tested form may be a part): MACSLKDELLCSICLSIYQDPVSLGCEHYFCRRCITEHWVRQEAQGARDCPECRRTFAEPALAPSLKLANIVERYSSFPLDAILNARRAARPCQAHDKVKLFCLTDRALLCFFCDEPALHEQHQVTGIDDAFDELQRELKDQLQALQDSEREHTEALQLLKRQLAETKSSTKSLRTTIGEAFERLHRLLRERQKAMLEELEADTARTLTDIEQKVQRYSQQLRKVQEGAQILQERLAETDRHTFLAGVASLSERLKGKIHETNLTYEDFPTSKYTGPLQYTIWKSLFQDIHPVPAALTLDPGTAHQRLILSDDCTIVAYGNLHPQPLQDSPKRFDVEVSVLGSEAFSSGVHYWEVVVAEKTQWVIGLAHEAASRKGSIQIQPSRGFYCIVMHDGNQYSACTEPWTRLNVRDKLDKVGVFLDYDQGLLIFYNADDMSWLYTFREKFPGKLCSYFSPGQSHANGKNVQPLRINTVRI
Caspase recruitment domain-containing protein 9 (Homo sapiens) + E3 ubiquitin-protein ligase TRIM62 (Homo sapiens), sequence (Q9H257 whole entry, looked up, the tested form may be a part): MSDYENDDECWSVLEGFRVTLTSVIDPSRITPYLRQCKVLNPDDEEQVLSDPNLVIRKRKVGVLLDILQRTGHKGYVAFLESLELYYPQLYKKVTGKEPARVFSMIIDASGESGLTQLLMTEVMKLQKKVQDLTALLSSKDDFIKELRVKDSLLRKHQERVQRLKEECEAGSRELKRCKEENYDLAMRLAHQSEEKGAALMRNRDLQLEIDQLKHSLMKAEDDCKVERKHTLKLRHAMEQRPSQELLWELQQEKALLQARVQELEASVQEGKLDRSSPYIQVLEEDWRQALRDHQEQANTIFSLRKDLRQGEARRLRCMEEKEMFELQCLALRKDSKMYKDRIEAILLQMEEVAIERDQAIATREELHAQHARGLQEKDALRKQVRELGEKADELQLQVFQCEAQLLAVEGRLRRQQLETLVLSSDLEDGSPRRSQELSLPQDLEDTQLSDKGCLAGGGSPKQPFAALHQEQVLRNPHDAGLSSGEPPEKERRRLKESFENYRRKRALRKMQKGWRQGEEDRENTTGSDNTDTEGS

Take `COCCCNC(=O)C1CCN(c2ccc(N3CCOCC3)nn2)CC1`: the “activity change, negative = inhibition” value (at 80 µM (top of the series)) was “inactive”.

As to `O=C(Cn1cncc1-c1ccc([N+](=O)[O-])cc1)Nc1ccccc1F`, the “activity change, negative = inhibition” value (at 80 µM (top of the series)) was “inactive”.

Consider `Cc1ccc2c(c1)C(N1CCCC1=O)CC(c1ccco1)N2` (centres undefined), for which the “activity change, negative = inhibition” value (at 80 µM (top of the series)) is “inactive”.

With `NC(=O)C1(N2CCCCC2)CCN(c2ncc(NC(=O)c3ccc(Cl)cc3)cc2C(=O)O)CC1`, the AC50 (usually the concentration giving half of the maximal activity seen) is 6.01 µM.

Take `Cc1ccc(C)n1Nc1nc(O)cs1`: where the note is “at 38 µM (top of the series)”, the “activity change, negative = inhibition” value was “inactive”.

As to `COc1ccc(-n2c(C)c3c(OC)cccc(=O)c3c2C)cc1`, the half-maximal activity concentration (AC50) was 79.7 µM.

In the case of `O=C(O)Cc1c[nH]c2cccc(O)c12`, where the note is “at 80 µM (top of the series)”, the “activity change, negative = inhibition” value was “inactive”.

Take `Cc1cc(C)c2c(N)c(C(=O)Nc3cccc4ccccc34)sc2n1`: the “activity change, negative = inhibition” value (at 80 µM (top of the series)) is “inactive”.

With `O=C(Nc1nccs1)c1cc(-c2ccco2)nc2ccccc12`, the AC50 was > 160 µM (inactive).

Turning to `COc1ccc(NC(=O)c2nc(Nc3ccccc3)c3ccccc3n2)cc1`, the “activity change, negative = inhibition” value (at 38 µM (top of the series)) was “inactive”.

As for `CC(=O)Nc1ccc(Nc2nc(-c3nnc(-c4cccc(C)c4)o3)nc3ccccc23)cc1`, the “activity change, negative = inhibition” value (at 80 µM (top of the series)) is “inactive”.

As for `NC(=O)C1(N2CCCCC2)CCN(c2ncc(NC(=O)c3ccccc3F)cc2C(=O)O)CC1`, the AC50 is 18 µM.

Regarding `O=C(O)C1Oc2cc3ccccc3cc2O1`, the AC50 was 68.9 µM.

In the case of `O=C(N/N=C/C=C/c1ccco1)c1cncc(Br)c1`, for the setting “at 80 µM (top of the series)”, the “activity change, negative = inhibition” value was “inactive”.

Consider `CCN1CCN(C(=O)c2cc(-c3ccco3)nc3ccccc23)CC1`, for which the AC50 is 61.4 µM.

For the molecule `O=C(CCc1nc(-c2ccccc2)no1)NCC1CNCCOC1` (centres undefined), the “activity change, negative = inhibition” value (at 80 µM (top of the series)) was “inactive”.

With `O=C(COC(=O)c1cc(-c2cccs2)nc2ccccc12)NCc1ccco1`, the “activity change, negative = inhibition” value (at 80 µM (top of the series)) was “inactive”.

Consider `Cc1ccc(Cc2cnc(N)s2)o1`, for which the “activity change, negative = inhibition” value (at 80 µM (top of the series)) was “inactive”.

For the molecule `Cn1nnnc1SCCNCc1ccc(-c2cccc(C(F)(F)F)c2)o1`, under “at 80 µM (top of the series)”, the “activity change, negative = inhibition” value is “inactive”.

As for `O=S(=O)(Nc1nc2ccccc2nc1NCc1ccco1)c1ccccc1`, the “activity change, negative = inhibition” value (at 80 µM (top of the series)) was “inactive”.

For `COCC(=O)N1CCCC2(CCN(CCN3CCCC3)C2=O)C1` (centres undefined), the AC50 is > 160 µM (inactive).

Turning to `C=CC(=O)N1CCCC2(CCN(CCN3CCCC3)C2=O)C1` (centres undefined), the AC50 is 1.53 µM.

Take `O=C(CCN1CCOCC1)c1ccc2c(c1)OCCO2`: the “activity change, negative = inhibition” value (at 80 µM (top of the series)) was “inactive”.

Take `CCC1c2ccc(C)n2CCN1C(=O)Nc1ccccc1C(=O)OC` (centres undefined): under “at 80 µM (top of the series)”, the “activity change, negative = inhibition” value was “inactive”.

Turning to `C[C@H](CO)N1C[C@H](C)[C@@H](CN(C)CC2CCCCC2)OCCCC[C@H](C)Oc2ccc(NS(C)(=O)=O)cc2C1=O`, the AC50 is 28.9 µM.

For `CC1(C)Cc2ccccc2-c2nc(-c3ccccc3)oc(=O)c21`, the “activity change, negative = inhibition” value (at 80 µM (top of the series)) is “inactive”.

As for `COc1cccc(NC(=O)CN(C)C(=O)c2cc3c(s2)CCC3)c1`, the AC50 is 50.6 µM.

In the case of `Cc1cc(C(=O)NCc2ccco2)on1`, under “at 80 µM (top of the series)”, the “activity change, negative = inhibition” value is “inactive”.

As to `O=C(Nc1nc(-c2ccco2)c(-c2ccco2)s1)C1CCC1`, the AC50 is 54.7 µM.

In the case of `O=C(Nc1ccc2oc(-c3cccnc3)nc2c1)c1ccc2c(c1)OCCO2`, for the setting “at 80 µM (top of the series)”, the “activity change, negative = inhibition” value is “inactive”.

Consider `CCCN1CCc2nc(SCc3nc(-c4ccc(OC)cc4OC)oc3C)[nH]c(=O)c2C1`, for which, for the setting “at 80 µM (top of the series)”, the “activity change, negative = inhibition” value was “inactive”.

For `N#CNc1nc(O)cc(=O)[nH]1`, the “activity change, negative = inhibition” value (at 80 µM (top of the series)) was “inactive”.

Take `Cc1cccc(NC(=O)Cc2coc3ccc4ccccc4c23)n1`: the “activity change, negative = inhibition” value (at 80 µM (top of the series)) is “inactive”.

For the molecule `O=C(Nc1cccc2nsnc12)c1ccc(-c2cccc(Cl)c2)o1`, where the note is “at 80 µM (top of the series)”, the “activity change, negative = inhibition” value is “inactive”.

Regarding `Clc1ccc2nc(CN3CCCCCC3)cn2c1`, under “at 80 µM (top of the series)”, the “activity change, negative = inhibition” value was “inactive”.

Take `CC1=CCC(C(=O)O)C(C(=O)NC2CCCCC2)C1` (centres undefined): the AC50 was 83.4 µM.

Consider `O=C(CC1Nc2ccccc2OC1=O)Nc1ccc(Cl)cc1` (centres undefined), for which the “activity change, negative = inhibition” value (at 80 µM (top of the series)) was “inactive”.

Consider `CC(C)=CCC(C#N)(CC=C(C)C)C(=O)O`, for which, for the setting “at 80 µM (top of the series)”, the “activity change, negative = inhibition” value is “inactive”.

With `Fc1ccc(CSc2nnc(-c3cccnc3)n2Cc2ccco2)cc1`, the “activity change, negative = inhibition” value (at 80 µM (top of the series)) is “inactive”.

As for `CC1Cc2ccccc2N1CC(=O)NC(=O)NC(C)(C)C` (centres undefined), for the setting “at 80 µM (top of the series)”, the “activity change, negative = inhibition” value is “inactive”.

In the case of `C(=C\c1ccco1)/c1nc2ccccc2[nH]1`, where the note is “at 80 µM (top of the series)”, the “activity change, negative = inhibition” value is “inactive”.

For the molecule `O=C1c2ccccc2-c2nc3ccccc3nc21`, the AC50 is > 160 µM (inactive).

For the molecule `Cc1nn2c(c1-c1ccccc1)NC(c1ccco1)=CC2c1ccco1` (centres undefined), the “activity change, negative = inhibition” value (at 80 µM (top of the series)) was “inactive”.

For `Cc1ccc(C2CC(=O)C3=C(C2)Nc2ccccc2NC3c2cccnc2)cc1` (centres undefined), the “activity change, negative = inhibition” value (at 80 µM (top of the series)) was “inactive”.

Consider `Cc1scc(C(=O)NCc2ccco2)c1-c1ccccc1`, for which the “activity change, negative = inhibition” value (at 80 µM (top of the series)) is “inactive”.

Turning to `O=C(O)c1ccccc1SC1CC(=O)N(Cc2ccccc2)C1=O` (centres undefined), the “activity change, negative = inhibition” value (at 80 µM (top of the series)) is “inactive”.

As for `O=S(=O)(Nc1nccs1)c1ccc(-n2cccc2)cc1`, the “activity change, negative = inhibition” value (at 80 µM (top of the series)) is “inactive”.

For `CN(Cc1ccco1)S(=O)(=O)c1nnc(NC(=O)c2ccccc2)s1`, the “activity change, negative = inhibition” value (at 80 µM (top of the series)) was “inactive”.

`Cc1ccc(C(=O)Nc2ccc(N3CCC(C(N)=O)(N4CCCCC4)CC3)c(C(=O)O)c2)cc1`: the AC50 is 24.3 µM.

In the case of `FC(F)(F)c1cc(Cl)c2nnc(C(F)(F)Cl)n2c1`, the “activity change, negative = inhibition” value (at 80 µM (top of the series)) was “inactive”.

Take `Cc1ccccc1C(=O)Nc1cnc(N2CCC(C(N)=O)(N3CCCCC3)CC2)c(C(=O)O)c1`: the AC50 was 7.55 µM.

On to `C[C@H](CO)N1C[C@H](C)[C@H](CN(C)C(=O)C2CCCCC2)OCCCC[C@H](C)Oc2ccc(NS(=O)(=O)c3cccs3)cc2C1=O`, for which the “activity change, negative = inhibition” value (at 80 µM (top of the series)) is “inactive”.

As for `O=S(=O)(c1ccc2nc(-c3ccco3)c(-c3ccco3)nc2c1)N1CCOCC1`, the AC50 is > 160 µM (inactive).

For `C[C@H](CO)N1C[C@H](C)[C@@H](CN(C)CC2CCCCC2)OCCCC[C@H](C)Oc2ccc(NS(=O)(=O)c3cn(C)cn3)cc2C1=O`, the “activity change, negative = inhibition” value (at 80 µM (top of the series)) was “inactive”.

For `O=C(Nc1nc(-c2nc3ccccc3s2)cs1)c1ccco1`, the “activity change, negative = inhibition” value (at 80 µM (top of the series)) is “inactive”.

`O=c1oc(-c2ccccc2)nc2sc3c(c12)CCC3`: the “activity change, negative = inhibition” value (at 80 µM (top of the series)) was “inactive”.

Regarding `O=C1CS/C(=N\N=C\c2ccco2)N1c1ccccc1`, the “activity change, negative = inhibition” value (at 80 µM (top of the series)) was “inactive”.

On to `N#CCSc1nc2c(c(=O)n1Cc1ccco1)C1(CCCC1)Cc1ccccc1-2`, for which the “activity change, negative = inhibition” value (at 80 µM (top of the series)) is “inactive”.

For the molecule `O=C(Cc1ccc(S(=O)(=O)N2CCOCC2)s1)Nc1nc2c(s1)CCCC2`, the AC50 is > 160 µM (inactive).

As for `O=C(Nc1ccc2c(c1)nc1n2CCN(C2CCCCC2)C1)c1ccco1`, the “activity change, negative = inhibition” value (at 80 µM (top of the series)) was “inactive”.

For `Cc1cccc2nc(CSCc3ccco3)cn12`, the AC50 was > 160 µM (inactive).

As to `O=C(Nc1ccc(OCC(=O)N2CCOCC2)cc1)c1cncc(Br)c1`, the concentration at half-maximal activity (AC50) was 42.1 µM.

As for `O=C1NC(c2ccc(Br)cc2)Nc2sc3c(c21)CCC3` (centres undefined), under “at 80 µM (top of the series)”, the “activity change, negative = inhibition” value was “inactive”.

Regarding `N#Cc1c2c(c(NCc3ccco3)n3c1nc1ccccc13)CCC2`, the “activity change, negative = inhibition” value (at 80 µM (top of the series)) was “inactive”.

Source of the values: PubChem BioAssay AID1259338 (Broad Institute, 2017).
